According to article PMC6001375, “CLERK is a novel receptor kinase required for sensing of root-active CLE peptides in Arabidopsis” (Development (Cambridge, England), 2018):

Columns and labels:
CLERK gene expression = assay: CLERK::eGFP-GUS reporter expression in root meristem; assay type: in vivo, Arabidopsis thaliana; details: 1 μM CLE26, 5 min vs 60 min (Fig. S1E); compared with VISUAL assay
Text: B overlay of PI fluorescence withGFP channel, in absence of GFPC overlay of GFP fluorescence withPI channel, in absence of PI […]
Figure S1 – Supplemental figure. (A) Phylogenetic tree of the class II LRR-RKs of Arabidopsis. (B) Col-0 wild type control root meristem, […]
5 days old, confocal microscopy. Left: GFP channel, yellow, note some background on the root edges; Right: Overlay of GFP channel with […]
PI cell wall staining (cyan). (C) CLERK-GFP fusion protein expression pattern, confocal microscopy, imaged without PI cell wall staining.
Left: GFP fluorescence, yellow; Right: Overlay of GFP fluorescence with PI channel, note increased background. (D) BAM3-CITRINE fusion […]
protein expression pattern in a clerk mutant root meristem, confocal microscopy. Left: CITRINE fluorescence, yellow; Right: Overlay of CITRINE […]
fluorescence with PI cell wall staining (cyan). Asterisks indicate protophloem sieve element cell files. (E) CLERK gene expression in response […]
to CLE26 treatment, as monitored by GFP fluorescence in the root meristem of a Col-0 seedling that carried a CLERK::eGFP-GUS transgene, […]
confocal microscopy. The same root is shown at the beginning and end of a time course. GFP fluorescence, yellow; […]

[1] = test system: root meristem protophloem; assay: Protophloem development / CVP2::NLS-VENUS marker in root meristem; assay type: in vivo, Arabidopsis thaliana; details: clerk mutant roots, CLE26 treatment; n=18-30 (Fig. 5D)
Text: Fig. 5. CLERK prevents premature expression of a protophloem marker. (A) Schematic presentation of the protophloem sieve element lineage in the Arabidopsis root meristem. Red asterisk, pericycle cell file; dark-blue asterisk, protophloem sieve element cell file; light-blue asterisk, incipient metaphloem cell file; arrowheads indicate the two periclinal divisions. […] Left: VENUS fluorescence, yellow. Right: overlay of VENUS fluorescence with PI cell wall staining (cyan). Asterisk indicates protophloem sieve element cell file. (D) Quantification of protophloem strand presence/absence in root meristems of a Col-0 wild type or clerk mutant upon CLE26 treatment. Statistically significant differences when compared with mock control are indicated by letters ([…], P<0.001; n=18-30). […] (G) Distance between first detectable CVP2 expression and the quiescent center (QC) in Col-0 wild type and clerk mutants, expressed as cell number. […] (H) Distance between first detectable CVP2 expression and the quiescent center (QC) in Col-0 wild type and clerk mutants, expressed as absolute distance. […] (J) Quantification of cell file number in Col-0 wild type or clerk mutants, counted at the level where protoxylem has differentiated. […] Left: VENUS fluorescence, yellow; Right: overlay of VENUS fluorescence with PI cell wall staining (cyan). […]

[2] = test system: root meristem protophloem; details: BAM3 necessary; ref Depuydt et al., 2013; Hazak et al., 2017; Kang and Hardtke, 2016; cited from earlier work
Text: The endogenous CLAVATA3/EMBRYO SURROUNDING REGION (CLE) peptides of plants are secreted as propeptides and processed to yield bioactive 12-14 amino acid long ligands ([Cock and McCormick, 2001]; [Ito et al., 2006]; [Kondo et al., 2006]). The Arabidopsis thaliana genome contains 32 CLE genes, which encode 27 distinct CLE peptides ([Goad et al., 2016]; [Ito et al., 2006]; [Strabala et al., 2006]). Exogenous application of chemically synthesized CLE peptides at nanomolar concentrations frequently suppresses Arabidopsis root growth in tissue culture ([Depuydt et al., 2013]; [Fiers et al., 2005]; [ ...

BAM3 ectodomain = details: ref Hazak et al., 2017; cited from earlier work
Text: The CLE resistance of clerk mutants could be explained through indirect effects, for example on the expression of bona fide CLE receptors, as proposed for crn ([Hazak et al., 2017]). To evaluate this scenario, we focused our efforts on the only identified CLE receptor in the root protophloem so far, the CLE45 receptor BAM3 ([Hazak et al., 2017]; [Kang and Hardtke, 2016]). Introduction of a BAM3::BAM3-CITRINE transgene into clerk mutants did however not reveal any altered BAM3 expression or localization (Fig. S1D). To also test whether CLERK could serve as a co-receptor for BAM3 instead, we obt ...

Sequence	CLERK downregulation in the root meristem (CLERK gene expression)	Protophloem development in clerk mutants [1]	Effect on protophloem sieve element differentiation [2]	Binding to BAM3 ectodomain (BAM3 ectodomain)
RKVPRGPDPIHN [CLE26]	an equally strong effect was not observed in the root meristem	maintained protophloem development	–	–
RRVRRGSDPIHN [CLE45]	–	–	suppression of protophloem sieve element differentiation	high-affinity
